Results on 9 compounds are retold here after paper PMC8615997, “The Pseudo-Symmetric N-benzyl Hydroxyethylamine Core in a New Series of Heteroarylcarboxyamide HIV-1 Pr Inhibitors: Synthesis, Molecular Modeling and Biological Evaluation” (Biomolecules, 2021).

pIC50: −log10 of the molar value.

The target of the experiment is T1, recombinant wild-type HIV-1 PR (Human immunodeficiency virus type 1 group M subtype B, UniProt P04585).
T1 construct: recombinant wild-type HIV-1 PR from Bachem; purchased Bachem
In words: In vitro fluorometric HIV-1 protease inhibition assay (fluorogenic substrate Abz-Thr-Ile-Nle-Phe(p-NO2)-Gln-Arg-NH2, pH 5.5). The experiment is classed as biochemical. To be noted: for remaining activity at 0.0005 µM: read-out: residual activity at the 0.5 nM inhibitor. As for the experimental part:
IC50 values were determined at pH 5.5 using recombinant wild-type HIV-1 PR from Bachem and the fluorogenic substrate Abz-Thr-Ile-Nle-Phe(p-NO2)-Gln-Arg-NH2 (Abz-NF⁄-6; Bachem AG, Bubendorf, CH). […] The assay was performed as follows: Dilution Buffer: 100 mM MES buffer, pH 5.5, containing 400 mM NaCl, 1 mM EDTA, 1 mM DTT and 1 mg/mL BSA. Solution A: 10 μL of a substrate stock solution in DMSO (10 mg/ml, 10.6 mM) were diluted in 1.99 ml of dilution buffer to a final concentration of […]. Solution B: 10 μL of a protease stock solution (0.4 mg/mL) in 10 mM sodium phosphate buffer, pH 6.5, containing 1 mM EDTA, 10% glycerol, 0.05% mercaptoethanol, 50 mM NaCl, were diluted 100 times with the dilution buffer, pH 5.5, to a final concentration of 0.004 mg/ml.
Assay: 114 μL of solution A, 11 μL of solution B and 75 μL of the dilution buffer were pre-incubated in a cuvette at 25 °C, and the fluorescence was recorded at 325 nm excitation and 420 nm emission for 10 min. A total of 2 μL of the inhibitor in DMSO was then added, and the fluorescence was recorded for a further 10 min. […] IC50 was obtained by measuring the relative residual enzyme activity (ratio of the increase of fluorescence velocities before and after the addition of inhibitor) and by fitting the residual activity vs. inhibitor concentration semilog plots to a tetraparametric logistic function (Sigma plot 2001, SPSS Inc., Chicago, IL, USA). All the measures were triplicated.
IC50 values were obtained on recombinant wild-type HIV protease by measuring the initial rates of hydrolysis of the fluorogenic substrate Abz-Thr-Ile-Nle-Phe(NO2)-Gln-Arg (Table 1). The initial rates of the enzyme-catalyzed reactions were measured at different inhibitors concentrations, while the reference rates for the not-inhibited reactions were measured each time before the addition of the inhibitors. IC50 was obtained by measuring the relative residual enzyme activity (ratio of the increase of fluorescence velocities before and after the addition of inhibitor) and by fitting the residual activity vs. inhibitor concentration semilog plots to a tetraparametric logistic function.

Consider `O=C(N[C@@H](Cc1ccccc1)[C@H](O)CN(Cc1ccccc1)S(=O)(=O)c1ccc([N+](=O)[O-])cc1)c1ccc2occc2c1` [Compound 8a, N-((2S,3R)-3-hydroxy-4-(N-benzyl-4-nitrophenylsulfonamido)-1-phenylbutan-2-yl)benzofuran-5-carboxamide], for which the pIC50 was 7.33.

Regarding `COc1ccc(S(=O)(=O)N(Cc2ccccc2)C[C@@H](O)[C@H](Cc2ccccc2)NC(=O)c2ccc3[nH]ccc3c2)cc1OC` [Compound 9c, N-((2S,3R)-3-hydroxy-4-(N-benzyl-3,4-dimethoxyphenylsulfonamido)-1-phenylbutan-2-yl)1H-indol-5-carboxamide], the remaining activity at 0.0005 µM was 10.2%.

Consider `COc1ccc(S(=O)(=O)N(Cc2ccccc2)C[C@@H](O)[C@H](Cc2ccccc2)NC(=O)c2ccc3occc3c2)cc1OC` [Compound 8c, N-((2S,3R)-3-hydroxy-4-(N-benzyl-3,4-dimethoxyphenylsulfonamido)-1-phenylbutan-2-yl)benzofuran-5-carboxamide], for which the pIC50 was 7.09.

For `O=C(N[C@@H](Cc1ccccc1)[C@H](O)CN(Cc1ccccc1)S(=O)(=O)c1ccc([N+](=O)[O-])cc1)c1ccc2[nH]ccc2c1` [Compound 9a, N-((2S,3R)-3-hydroxy-4-(N-benzyl-4-nitrophenylsulfonamido)-1-phenylbutan-2-yl)1H-indol-5-carboxamide], the remaining activity at 0.0005 µM turned out to be 27.7%.

On to `COc1ccc(S(=O)(=O)N(Cc2ccccc2)C[C@@H](O)[C@H](Cc2ccccc2)NC(=O)c2ccc3sccc3c2)cc1` [Compound 7b, N-((2S,3R)-3-hydroxy-4-(N-benzyl-4-methoxyphenylsulfonamido)-1-phenylbutan-2-yl)benzo[b]thiophene-5-carboxamide], for which the pIC50 was 8.64.

As to `COc1ccc(S(=O)(=O)N(Cc2ccccc2)C[C@@H](O)[C@H](Cc2ccccc2)NC(=O)c2ccc3occc3c2)cc1` [Compound 8b, N-((2S,3R)-3-hydroxy-4-(N-benzyl-4-methoxyphenylsulfonamido)-1-phenylbutan-2-yl)benzofuran-5-carboxamide], the pIC50 is 8.02.

As to `COc1ccc(S(=O)(=O)N(Cc2ccccc2)C[C@@H](O)[C@H](Cc2ccccc2)NC(=O)c2ccc3sccc3c2)cc1OC` [Compound 7c, N-((2S,3R)-3-hydroxy-4-(N-benzyl-3,4-dimethoxyphenylsulfonamido)-1-phenylbutan-2-yl)benzo[b]thiophene-5-carboxamide], the negative logarithm of the IC50 (pIC50) was 8.21.

Consider `O=C(N[C@@H](Cc1ccccc1)[C@H](O)CN(Cc1ccccc1)S(=O)(=O)c1ccc([N+](=O)[O-])cc1)c1ccc2sccc2c1` [Compound 7a, N-((2S,3R)-3-hydroxy-4-(N-benzyl-4-nitrophenylsulfonamido)-1-phenylbutan-2-yl)benzo[b]thiophene-5-carboxamide], for which the pIC50 was 8.38.

On to `COc1ccc(S(=O)(=O)N(Cc2ccccc2)C[C@@H](O)[C@H](Cc2ccccc2)NC(=O)c2ccc3[nH]ccc3c2)cc1` [Compound 9b, N-((2S,3R)-3-hydroxy-4-(N-benzyl-4-methoxyphenylsulfonamido)-1-phenylbutan-2-yl)1H-indol-5-carboxamide], for which the remaining activity at 0.0005 µM was determined as 36.3%.
